The text below walks through data of ChEMBL document CHEMBL3120120, “Toxicological and pharmacological evaluation, antioxidant, ADMET and molecular modeling of selected racemic chromenotacrines {11-amino-12-aryl-8,9,10,12-tetrahydro-7H-chromeno[2,3-b]quinolin-3-ols} for the potential prevention and treatment of Alzheimer's disease” (Eur J Med Chem, 2014).

The source made the active and inactive calls. The calls are words filed in the database; no cut-off is given here.

In series [1] the test system is HepG2. Briefly: Hepatotoxicity against human HepG2 cells assessed as cell viability after 24 hrs by MTT assay. The class given is toxicity, cell-based. The settings on record: hepg2, 24 h.
A short description of series [2]: in vitro. The settings on record: human, HepG2 cells.
Description: Hepatotoxicity against human HepG2 cells assessed as cell viability at 10 uM after 24 hrs by MTT assay relative to control
A short description of series [3]: in vitro. The following applies: human, HepG2 cells. This is another data set of the same source.
Description: Hepatotoxicity against human HepG2 cells assessed as cell viability at 30 uM after 24 hrs by MTT assay relative to control
The nature of series [4]: in vitro. The following applies: human, HepG2 cells. The source holds these as a separate data set.
Description: Hepatotoxicity against human HepG2 cells assessed as cell viability at 3 uM after 24 hrs by MTT assay relative to control
Series [5] deals with T1, Acetylcholinesterase (Electrophorus electricus, UniProt O42275).
T1 sequence (O42275 whole entry): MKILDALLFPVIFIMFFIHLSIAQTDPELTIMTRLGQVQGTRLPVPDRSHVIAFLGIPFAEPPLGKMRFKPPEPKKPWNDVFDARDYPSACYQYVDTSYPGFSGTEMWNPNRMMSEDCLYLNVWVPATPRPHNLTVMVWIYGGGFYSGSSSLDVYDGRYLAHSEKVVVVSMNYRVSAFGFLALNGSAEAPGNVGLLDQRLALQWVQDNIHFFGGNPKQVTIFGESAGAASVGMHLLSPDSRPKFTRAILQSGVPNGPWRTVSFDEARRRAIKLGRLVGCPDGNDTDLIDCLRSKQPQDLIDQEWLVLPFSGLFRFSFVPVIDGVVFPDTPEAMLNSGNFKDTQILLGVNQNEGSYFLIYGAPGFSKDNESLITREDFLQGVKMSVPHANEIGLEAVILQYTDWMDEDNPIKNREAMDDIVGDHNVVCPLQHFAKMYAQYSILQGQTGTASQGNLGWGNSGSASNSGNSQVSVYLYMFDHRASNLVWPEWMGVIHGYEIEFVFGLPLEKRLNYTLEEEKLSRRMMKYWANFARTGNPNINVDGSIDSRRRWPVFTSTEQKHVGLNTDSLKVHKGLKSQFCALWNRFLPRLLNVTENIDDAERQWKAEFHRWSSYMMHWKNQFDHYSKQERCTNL
Description: Inhibition of electric eel AchE using acetylcholine as substrate preincubated for 15 mins followed by substrate addition measured for 5 mins by Ellman method
A short description of series [6]: in vitro. The following applies: human, HepG2 cells. The source holds these as a separate data set.
Description: Hepatotoxicity against human HepG2 cells assessed as cell viability at 1 uM after 24 hrs by MTT assay relative to control
The nature of series [7]: in vitro. The settings on record: human, HepG2 cells. This is another data set of the same source.
Description: Hepatotoxicity against human HepG2 cells assessed as cell viability at 300 uM after 24 hrs by MTT assay relative to control
Series [8] can be described thus: in vitro. The following applies: human, HepG2 cells. This is another data set of the same source.
Description: Hepatotoxicity against human HepG2 cells assessed as cell viability at 100 uM after 24 hrs by MTT assay relative to control
A short description of series [9]: Antioxidant activity against AAPH-induced lipid peroxidation assessed as inhibition of conjugated diene hydroperoxide production at 100 uM. The class given is functional.
Series [10] has as its target T1, Acetylcholinesterase. Briefly: Noncompetitive inhibition of electric eel AchE using acetylcholine as substrate preincubated for 15 mins followed by substrate addition measured for 5 mins by Dixon plot analysis.
A short description of series [11]: Toxicity in Wistar rat embryo primary cortical neuron assessed as increase in ROS formation at >25 uM. The following applies: cerebral cortex neuron. Format: cell-based.
Another series has as its system Glycine max. The series is described as follows: Inhibition of soybean lipoxygenase assessed as conversion of sodium linoleate to 13-hydroperoxylinoleic acid at 100 uM by UV absorbance assay.
Series [12] is described as follows: Neuroprotective activity in Wistar rat embryo primary cortical neuron assessed as reduction of SNP-induced cell death by measuring cell viability at 100 uM after 24 hrs by XTT assay relative to control. Format: functional, Cerebral cortex neuron. Background: Tetrazolium assays rely on reduction of a dye to a coloured formazan, in cell work by metabolically active cells.

Series [13] concerns Cerebral cortex neuron. Briefly: Neuroprotective activity in Wistar rat embryo primary cortical neuron using DEVD-AMC as flurogenic substrate assessed as inhibition of SNP-induced cell necrosis by measuring caspase 3 activity at 25 to 50 uM by spectroflurometric analysis in presence of serum relative to control. Format: functional, cell-based.
The next series relates to SH-SY5Y. Briefly: Antioxidant activity in human SH-SY5Y cells assessed as decrease in H2O2-induced MDA level after 8 hrs by TBARS assay. Format: functional, cell-based.
The nature of series [14]: Neuroprotective activity in Wistar rat embryo primary cortical neuron assessed as reduction of SNP-induced cell death by measuring cell viability after 24 hrs by XTT assay relative to control. The settings on record: Cerebral cortex neuron. The class given is functional, cell-based.
Series [15] can be described thus: Neuroprotective activity in Wistar rat embryo primary cortical neuron using DEVD-AMC as flurogenic substrate assessed as inhibition of oligomycin A-induced cell death by measuring caspase 3 activity at 25 to 50 uM by spectroflurometric analysis relative to control. Format: functional, Cerebral cortex neuron.
Series [16] in a line: Neuroprotective activity in Wistar rat embryo primary cortical neuron assessed as reversal of SNP-induced ROS formation at 1 uM after 24 hrs by spectrofluorometric analysis relative to control. The class given is functional, Cerebral cortex neuron.
For series [17], the system named is HepG2. The series is described as follows: Hepatotoxicity against human HepG2 cells assessed as LDH release at 1 to 300 uM. The class given is toxicity, cell-based. The following applies: hepg2, 300 µM. Background: Release of lactate dehydrogenase indicates damage to the cell membrane.
The target of series [18] is Acetylcholinesterase (Electrophorus electricus) (UniProt O42275). The series is described as follows: Noncompetitive inhibition of electric eel AchE using acetylcholine as substrate at 0.01 to 10 uM preincubated for 15 mins followed by substrate addition measured for 5 mins by Lineweaver-Burk plot analysis.
Acetylcholinesterase (Electrophorus electricus), sequence (O42275 24-633 limits assumed): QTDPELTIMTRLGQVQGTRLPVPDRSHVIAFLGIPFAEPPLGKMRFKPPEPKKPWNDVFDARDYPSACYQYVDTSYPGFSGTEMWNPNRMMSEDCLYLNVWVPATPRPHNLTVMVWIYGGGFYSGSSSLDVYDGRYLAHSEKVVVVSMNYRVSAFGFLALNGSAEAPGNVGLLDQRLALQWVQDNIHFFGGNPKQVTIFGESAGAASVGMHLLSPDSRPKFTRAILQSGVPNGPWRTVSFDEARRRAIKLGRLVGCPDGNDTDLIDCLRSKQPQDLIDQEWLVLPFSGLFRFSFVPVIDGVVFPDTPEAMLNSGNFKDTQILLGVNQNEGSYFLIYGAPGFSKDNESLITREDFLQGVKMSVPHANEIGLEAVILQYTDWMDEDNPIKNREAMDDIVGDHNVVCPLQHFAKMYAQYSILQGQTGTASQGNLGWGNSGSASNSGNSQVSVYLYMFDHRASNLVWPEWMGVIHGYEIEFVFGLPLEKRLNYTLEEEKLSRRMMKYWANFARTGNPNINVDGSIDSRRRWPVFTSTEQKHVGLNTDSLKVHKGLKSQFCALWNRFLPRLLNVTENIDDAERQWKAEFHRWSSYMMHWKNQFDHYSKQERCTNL
The nature of series [19]: Neuroprotective activity in Wistar rat embryo primary cortical neuron assessed as reduction of oligomycin A-induced cell death by measuring cell viability after 24 hrs by XTT assay relative to control. Format: functional, cell-based. The following applies: Cerebral cortex neuron.
The subject of series [20] is Cerebral cortex neuron. The series is described as follows: Neuroprotective activity in Wistar rat embryo primary cortical neuron using DEVD-AMC as flurogenic substrate assessed as inhibition of oligomycin A-induced cell death by measuring caspase 3 activity at 25 to 50 uM by spectroflurometric analysis in presence of serum relative to control. Format: functional, cell-based.

The nature of series [21]: Neuroprotective activity in Wistar rat embryo primary cortical neuron assessed as reversal of SNP-induced ROS formation at 10 uM after 24 hrs by spectrofluorometric analysis relative to control. The class given is functional, Cerebral cortex neuron.
Series [22] in a line: Neuroprotective activity in Wistar rat embryo primary cortical neuron assessed as reduction of oligomycin A-induced cell death by measuring cell viability at 100 uM after 24 hrs by XTT assay relative to control. The class given is functional, Cerebral cortex neuron.
The nature of series [23]: Neuroprotective activity in Wistar rat embryo primary cortical neuron using DEVD-AMC as flurogenic substrate assessed as inhibition of SNP-induced cell necrosis by measuring caspase 3 activity at 25 to 50 uM by spectroflurometric analysis relative to control. Format: functional, Cerebral cortex neuron.
A short description of series [24]: Neuroprotective activity in Wistar rat embryo primary cortical neuron assessed as reversal of SNP-induced ROS formation at 25 uM after 24 hrs by spectrofluorometric analysis relative to control. The class given is functional, Cerebral cortex neuron.

With `Nc1c2c(nc3c1C(c1ccc(F)cc1)c1ccc(O)cc1O3)CCCC2` (racemic), the Activity result in the series with HepG2 [1] is recorded as “Dose-dependent effect”. Further, the viability at 24 h, 10 µM in “in vitro [2]” was determined as 62.8%. Moreover, the viability at 24 h, 30 µM in the series “in vitro [3]” turned out to be 55.7%. Moreover, in “in vitro [4]”, the viability at 24 h, 3 µM was 75.1%. For the same molecule, on Acetylcholinesterase [5], half-maximal inhibition (IC50) was put at 103 nM. In addition, the viability at 24 h, 1 µM in “in vitro [6]” is 91%. In addition, in the series “in vitro [7]”, the viability at 24 h, 300 µM was found to be 50.1%. In addition, in “in vitro [8]”, the viability at 24 h, 100 µM is 55.5%.

For the molecule `COc1ccc(C2c3ccc(O)cc3Oc3nc4c(c(N)c32)CCCC4)cc1` (racemic), in the series with HepG2 [1], the Activity entry was “Dose-dependent effect”. Besides, the viability at 24 h, 10 µM in “in vitro [2]” came out at 94.1%. The viability at 24 h, 30 µM in the series “in vitro [3]” came out at 95%. The viability at 24 h, 3 µM in “in vitro [4]” amounted to 96.8%. At Acetylcholinesterase [5], this molecule registered an IC50 of 530 nM. Further, the viability at 24 h, 1 µM in the series “in vitro [6]” was 97.3%. Moreover, the viability at 24 h, 300 µM in the series “in vitro [7]” came to 75.5%. For the same molecule, the viability at 24 h, 100 µM in the series “in vitro [8]” came to 85.9%.

Regarding `Cc1c(C)c2c(c(C)c1O)CCC(C)(C(=O)O)O2` (stereo unspecified), the inhibition in series [9] turned out to be 63%.

Consider `Nc1c2c(nc3c1C(c1ccc(Br)cc1)c1ccc(O)cc1O3)CCCC2` (racemic), for which the Activity result in the series on HepG2 [1] is “Dose-dependent effect”. Moreover, the viability at 24 h, 10 µM in “in vitro [2]” was found to be 84.8%. Besides, the viability at 24 h, 30 µM in “in vitro [3]” is 76.9%. Moreover, the viability at 24 h, 3 µM in the series “in vitro [4]” stood at 87.4%. Also, at Acetylcholinesterase [5], 7 nM corresponded to half-maximal inhibition (IC50). Further, the viability at 24 h, 1 µM in the series “in vitro [6]” was found to be 99%. Further, the viability at 24 h, 300 µM in the series “in vitro [7]” came to 61.5%. In addition, in the series “in vitro [8]”, the viability at 24 h, 100 µM was 74.4%.

With `Nc1c2c(nc3c1C(c1ccccc1)c1ccc(O)cc1O3)CCCC2` (racemic), the Activity result with HepG2 [1] is given as “Dose-dependent effect”. Besides, in the series “in vitro [2]”, the viability at 24 h, 10 µM was 66.2%. The viability at 24 h, 30 µM in the series “in vitro [3]” is 62.4%. For the same molecule, in “in vitro [4]”, the viability at 24 h, 3 µM turned out to be 67.4%. This molecule showed an IC50 on Acetylcholinesterase [5] of 550 nM. Also, the viability at 24 h, 1 µM in the series “in vitro [6]” worked out at 99.5%. Moreover, in “in vitro [7]”, the viability at 24 h, 300 µM turned out to be 49.6%. In “in vitro [8]”, the viability at 24 h, 100 µM amounted to 55.8%.

As for `COc1cc(C2c3ccc(O)cc3Oc3nc4c(c(N)c32)CCCC4)cc(OC)c1OC` (racemic), the affinity at Acetylcholinesterase [10] corresponds to a Ki of 47 nM. The Activity result in series [11] is “Toxic”; in the series on HepG2 [1], “Dose-dependent effect”; in series [12] it was 148.12%; in the series with SH-SY5Y it was “Dose-dependent effect”; with HepG2 [17] it was “Non-toxic”; in series [22], 81.08%. For the same molecule, the viability at 24 h, 10 µM in “in vitro [2]” came out at 101%. Further, the viability at 24 h, 30 µM in the series “in vitro [3]” came to 100%. In addition, the inhibition is 18% in the series on Glycine max and 85% in series [9]. The viability at 24 h, 3 µM in “in vitro [4]” came to 98.7%. Further, the inhibition entry (in the series with Cerebral cortex neuron [13]; in [18]; with Cerebral cortex neuron [20]) was “Active” in each case. In addition, the results for the EC50 in series [14] and in series [19] were 3470 nM and 1110 nM, respectively. The same molecule registered an IC50 at Acetylcholinesterase [5] of 41 nM. For the same molecule, the “fold change (FC)” value is 1.83 in series [15]; 2.31 in series [16]; 1.93 in [21]; 3.43 in series [23]; 1.81 in series [24]. Further, the viability at 24 h, 1 µM in the series “in vitro [6]” turned out to be 102%. Further, the viability at 24 h, 300 µM in “in vitro [7]” came out at 103%. For the same molecule, in “in vitro [8]”, the viability at 24 h, 100 µM came to 98.3%.

Take `CN(C)c1ccc(C2c3ccc(O)cc3Oc3nc4c(c(N)c32)CCCC4)cc1` (racemic): the Activity result in the series with HepG2 [1] was “Dose-dependent effect”. For the same molecule, in the series “in vitro [2]”, the viability at 24 h, 10 µM stood at 86.1%. For the same molecule, the viability at 24 h, 30 µM in the series “in vitro [3]” worked out at 85.5%. Further, the viability at 24 h, 3 µM in the series “in vitro [4]” was found to be 88.5%. This molecule had an IC50 on Acetylcholinesterase [5] of 290 nM. Further, the viability at 24 h, 1 µM in “in vitro [6]” worked out at 99%. The viability at 24 h, 300 µM in the series “in vitro [7]” is 80.3%. The viability at 24 h, 100 µM in “in vitro [8]” was found to be 85.5%.

Take `CC(Cc1ccc(O)c(O)c1)C(C)Cc1ccc(O)c(O)c1` (stereo unspecified): the inhibition with Glycine max was determined as 84%.

Take `Cc1ccc(C2c3ccc(O)cc3Oc3nc4c(c(N)c32)CCCC4)cc1` (racemic): in the series with HepG2 [1], the Activity entry was “Dose-dependent effect”. For the same molecule, the viability at 24 h, 10 µM in “in vitro [2]” came out at 85.6%. Also, the viability at 24 h, 30 µM in “in vitro [3]” is 74.3%. Moreover, the viability at 24 h, 3 µM in the series “in vitro [4]” is 89.5%. At Acetylcholinesterase [5], the IC50 came out at 65 nM. For the same molecule, the viability at 24 h, 1 µM in the series “in vitro [6]” was determined as 96.9%. Moreover, the viability at 24 h, 300 µM in “in vitro [7]” turned out to be 47.9%. Moreover, in the series “in vitro [8]”, the viability at 24 h, 100 µM was 71.7%.

A word on the viability: it is a read-out of living cells in per cent, often relative to untreated cells. By IC50 is commonly meant the midpoint of a concentration-inhibition curve. Higher therefore signals weaker potency. What is called inhibition is the drop in the measured response relative to a control, in per cent. As usually defined, the Ki is a dissociation constant, usually derived from enzyme kinetics or from competition with a known ligand. Higher therefore signals a looser hold on the target. In general, EC50 refers to the concentration at which the effect is half-maximal.
